Measured values published in PMC9544171, “Glucose‐dependent insulinotropic polypeptide receptor antagonist treatment causes a reduction in weight gain in ovariectomised high fat diet‐fed mice” (British Journal of Pharmacology, 2022).
Where a SMILES comes first, the peptide text is derived from it. The star is where a group is joined. C16 diacid = O=C(O)CCCCCCCCCCCCCCC(=O)*

Key:
[1] = molecular target: T1, mouse GLP‐1 receptor (Mus musculus, UniProt O35659); assay: cAMP accumulation, agonism in transfected COS‐7 cells; assay type: cell-based; settings: increasing concentrations, COS‐7, n = 5
T1 construct: host or cells: COS-7
T1 sequence (O35659 22-463): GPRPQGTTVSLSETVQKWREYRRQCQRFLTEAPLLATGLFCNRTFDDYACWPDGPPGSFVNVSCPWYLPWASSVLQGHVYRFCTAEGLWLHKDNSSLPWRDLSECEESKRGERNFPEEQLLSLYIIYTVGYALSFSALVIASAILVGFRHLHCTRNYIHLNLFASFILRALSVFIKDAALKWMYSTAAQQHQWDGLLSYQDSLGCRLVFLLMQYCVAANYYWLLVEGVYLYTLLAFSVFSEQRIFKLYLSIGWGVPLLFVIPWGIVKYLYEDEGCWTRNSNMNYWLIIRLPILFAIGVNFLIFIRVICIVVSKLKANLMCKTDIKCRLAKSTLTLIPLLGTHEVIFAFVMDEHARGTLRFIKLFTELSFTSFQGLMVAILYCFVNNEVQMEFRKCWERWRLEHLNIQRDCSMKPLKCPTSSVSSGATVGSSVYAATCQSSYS
Protocol: COS‐7 cells were cultured at 10% CO2 and 37°C in Dulbecco's Modified Eagle Medium 1885 supplemented with 10% foetal bovine serum, 2‐mM glutamine, 180‐units ml^−1 penicillin and 45‐g·ml^−1 streptomycin. […] A second set of cells was transiently transfected with either mouse GLP‐1 or GLP‐2 receptor. Following the day after transfection, the cells were seeded in white 96‐well plates with a density of 35.000 cells per well. The next day the assay was initiated by washing the cells with HEPES buffered saline (HBS) followed by an incubation step with HBS and 1‐mM 3‐isobutyl‐1‐methylxanthine for 30 min at 37°C. For agonist studies, the ligands were then added and incubated for an additional 30 min at 37°C. To test for antagonistic properties, the cells were first preincubated for 10 min with the antagonist with subsequent addition of the agonist and incubated for an additional 20 min. The HitHunter® cAMP assay (Eurofins DiscoverX, Fremont, USA) was carried out according to the manufacturer's protocol. Luminescence was measured by PerkinElmer™ Envision 2014 Multilabel Reader.
COS‐7 cells were transiently transfected with (a) mouse GLP1‐R and (b) mouse GLP‐2 R and assayed for cAMP accumulation. […] Data are shown as mean ± SE from n = 5 independent experiments

[2] = tested on: Female ovariectomised C57Bl6/J mice; assay: HFD study in ovariectomised mice, body weight and composition, 8 weeks; assay type: in vivo, mouse
Protocol: Prior to bilateral ovariectomy surgery and once daily for 48 h following, mice received analgesics through s.c. injection of carprofen (Rimadyl; 5 mg·kg^−1). Anaesthesia was induced in an induction chamber with 5% isoflurane and maintained with 2% isoflurane through a nose cone during the procedure. Proper respiration was ensured with a flow of oxygen through the nose cone and body temperature was maintained at 37°C by placing the mice on a heating pad. Mice were placed in a prone position on a sterile surgery pad and the area of incision was shaved and sterilized with 70% ethanol. Two dorsal‐lateral incisions were made and the ovary and attached fat pad were individually pulled out of the abdominal cavity. The fallopian tubes were ligated and the ovaries were dissected, then the fat pad was carefully placed back in the abdominal cavity. The skin incision was closed using wound clips (Reflex, Alzet, Cupertino, CA, USA). In half of the animals, a microtransponder (Datamars, Lamone, Switzerland) was inserted and animals were placed in an HM‐2 cage with the intention to measure food intake (MBrose, Faaborg, Denmark) and left to recover and acclimatize for a week. The remaining animals were placed back in their home cages to recover for a week. The division of mice into HM‐2 cages and home cages was randomized. Uterine atrophy was confirmed in all mice upon termination of the study, indicating successful ovariectomy.
(§1) A week after ovariectomy, at 10 weeks of age, animals were randomized into groups and placed on a 60 kcal% HFD (HFD, D12492, Research Diets, New Brunswick, NJ, USA) or a control diet (10 kcal% fat, D12450J, Research Diets) for 8 weeks. Group sizes were as follows: Vehicle/control diet, n = 12; mGIPAnt‐1/control diet, n = 12; Vehicle/HFD, n = 11; mGIPAnt‐1/HFD, n = 12. The reduction of animal numbers in group Vehicle/HFD was due to unexpected loss of an animal. Animals received a daily s.c. injection at 4:30 PM with mGIPAnt‐1 (300‐nmol·kg^−1) or vehicle. Body weight and body composition were assessed weekly (LF90II body composition analyzer, Bruker, Billerica, MA, USA). On the final experimental day, animals were anaesthetized with an intraperitoneal injection of 90 mg·kg^−1 ketamine and 10‐mg·kg^−1 xylazine. The microchip was quickly removed from HM‐2 cage animals and a final body composition measurement was performed on all animals. A terminal retro‐orbital blood sample was taken, mice were killed through cervical dislocation and tissues were quickly dissected and weighed.

[3] = tested on: Female ovariectomised C57Bl6/J mice; assay: Terminal plasma adiponectin, triglyceride and glycerol; assay type: in vivo, mouse; settings: 8 weeks of 300 nmol·kg−1 s.c. daily
Description: as §1
Insulin levels in intraperitoneal glucose tolerance test and oral glucose tolerance test plasma samples were measured using a mouse insulin ELISA (catalogue no. 10‐1247‐10; Mercodia AB, Uppsala, Sweden). Adiponectin levels in terminal plasma samples were measured using a mouse adiponectin ELISA kit (catalogue no. 80569, Crystal Chem, Elk Grove Village, IL, USA). Adiponectin samples were carefully diluted in kit‐specific assay buffer. The manufacturer's instructions were followed closely.
Triglyceride and free glycerol levels in terminal plasma samples were determined using a triglyceride and free glycerol kit (TR0100‐1KT, Sigma‐Aldrich, St. Louis, MO, USA).

[4] = tested on: Female C57Bl6/J mice; assay: Intraperitoneal glucose tolerance test, inhibition of exogenous GIP; assay type: in vivo, mouse
Protocol: To assess the biological activity of mGIPAnt‐1, we performed an intraperitoneal glucose tolerance test. Mice were fasted for 4 h and given either mGIPAnt‐1 ([…]; s.c.) or vehicle at t = −90 min. Group sizes were as follows:‐ Vehicle + Vehicle, n = 10, Vehicle + GIP, n = 12 and mGIPAnt‐1 + GIP, n = 8. Varying group numbers were due to unsuccessful administration of one of the four compounds as confirmed by measurements of plasma concentrations. At t = −10 all mice were given an intraperitoneal (i.p.) injection with dipeptidyl peptidase‐4 (DPP‐4) inhibitor valine pyrrolidide followed by s.c. injection of either 25 nmol·kg^−1 GIP (Synthetic mouse GIP(1‐42) or vehicle. At t = 0 min, mice received an i.p. injection with 0.5‐g·kg^−1 glucose. Blood glucose was measured from the tail vein using a hand‐held glucometer (Accu‐Chek Mobile, Roche, Basel, Switzerland) at t = 0, 10, 30, 45, 60, 120 and 180 min. Retro‐orbital blood samples (50 μl) were taken using EDTA coated glass capillaries (Vitrex, Vasekær, Denmark) at t = 0, 15, 30 and 60, 120 and 180 min and centrifuged at 3500g, 20 min, 4°C. Plasma was transferred into Eppendorf tubes on dry ice and stored at −20°C for later insulin measurements.
To facilitate comparisons of assay outputs (cAMP assays), the results (of duplicate measurements) were normalized, with the response to 10 pM of GIP(1‐42) set as 100%. All ligand concentrations are reported as log‐transformed. The IC50 log values can be found in Figure 1. In Figure 3c, we have subtracted glucose levels from baseline to show the net differences in glucose levels in our different treatment groups.

## CC[C@H](C)[C@H](NC(=O)[C@H](CO)NC(=O)[C@H](Cc1ccc(O)cc1)NC(=O)[C@H](CC(=O)O)NC(=O)[C@H](CO)NC(=O)[C@@H](NC(=O)[C@H](Cc1ccccc1)NC(=O)[C@@H](NC(=O)CNC(=O)[C@@H](N)CCC(=O)O)[C@@H](C)O)[C@@H](C)CC)C(=O)N[C@@H](C)C(=O)N[C@@H](CCSC)C(=O)N[C@@H](CC(=O)O)C(=O)N[C@@H](CCCCN)C(=O)N[C@H](C(=O)N[C@@H](CCCCNC(=O)CCCCCCCCCCCCCCC(=O)O)C(=O)N[C@@H](CCC(N)=O)C(=O)N[C@@H](CCC(N)=O)C(=O)N[C@@H](CC(=O)O)C(=O)N[C@@H](Cc1ccccc1)C(=O)N[C@H](C(=O)N[C@@H](CC(N)=O)C(=O)N[C@@H](Cc1c[nH]c2ccccc12)C(=O)N[C@@H](CC(C)C)C(=O)N[C@@H](CC(C)C)C(=O)N[C@@H](C)C(=O)N[C@@H](CCC(N)=O)C(=O)N[C@@H](CCCCN)C(=O)NCC(=O)N[C@@H](CCCCN)C(=O)N[C@@H](CCCCN)C(=O)N[C@@H](CC(N)=O)C(=O)N[C@@H](CC(=O)O)C(=O)N[C@@H](Cc1c[nH]c2ccccc12)C(=O)N[C@@H](CCCCN)C(=O)N[C@@H](Cc1c[nH]cn1)C(=O)N[C@@H](CC(N)=O)C(=O)O)C(C)C)[C@@H](C)CC [mGIPAnt‐1] (H-EGTFISDYSIAMDKIK(C16 diacid)QQDFVNWLLAQKGKKNDWKHN-OH)
[1]
  activation of mouse GLP‐1 receptor (cAMP): does not induce activation
[2]; 300 nmol·kg−1 s.c. daily, 8 weeks
  final lean body mass: not affected
[2]; 300 nmol·kg−1 s.c. daily, 8 weeks, 60 kcal% HFD, versus Vehicle/HFD, n = 11–12
  body weight, HFD: body weight in the control, HFD group was significantly higher compared to the mGIPAnt‐1/HFD group
[2]; 300 nmol·kg−1 s.c. daily, 8 weeks, control diet, n = 12
  absolute body weight, control diet: not affected
[2]; 300 nmol·kg−1 s.c. daily, 8 weeks, two‐way ANOVA
  total body weight gain, overall treatment effect: reducing total body weight gain
[2]; at 6 and 8 weeks, 300 nmol·kg−1 s.c. daily, versus Control/HFD, n = 6
  body fat percentage, HFD: Control/HFD animals significantly increased body fat percentage compared to mGIPAnt‐1/HFD animals
[2]; terminal
  BAT weight: not affected
  eWAT weight, control diet: did not affect
  iWAT weight, control diet: did not affect
  liver weight: not affected
[2]; terminal, versus Vehicle/HFD
  eWAT weight, HFD: reduced
  iWAT weight, HFD: reduced
[3]
  terminal plasma glycerol: did not significantly affect
  terminal plasma triglyceride: did not significantly affect
[3]; ELISA
  terminal plasma adiponectin: did not significantly affect
[3]; did not reach significance
  terminal plasma glycerol, HFD versus Vehicle/HFD: trend towards increased glycerol levels
[4]; mGIPAnt‐1 25 μmol·kg−1 s.c. at t = −90 min, 4 h fasted mice, versus the other two groups
  fasting (baseline) blood glucose at t = 0 of IPGTT: significant decrease in fasting blood glucose levels
[4]; mGIPAnt‐1 25 μmol·kg−1 s.c. t = −90 min, GIP 25 nmol·kg−1 s.c. and val‐pyr t = −10 min, glucose 0.5 g·kg−1 i.p., n = 8–12
  baseline‐subtracted glucose curve during IPGTT: did not differ
[4]; t = 120 and 180 min, same dosing as glucose curve
  glucose levels relative to baseline late in IPGTT: glucose levels do not drop below baseline
